Here are results for 2 compounds from publication PMC8752837, “Structural basis of BAK activation in mitochondrial apoptosis initiation” (Nature Communications, 2022).

Assay [1] concerns the target T1, D83A(s) BAK (Homo sapiens, UniProt Q16611, D83A).
T1 construct: C-terminus truncated recombinant human BAK containing C-terminal 6× histidine tag (MEAS-BAK); made in house; host or cells: E. coli T7 Express pLac I/Y
T1 sequence (Q16611 1-186 D83A limits assumed): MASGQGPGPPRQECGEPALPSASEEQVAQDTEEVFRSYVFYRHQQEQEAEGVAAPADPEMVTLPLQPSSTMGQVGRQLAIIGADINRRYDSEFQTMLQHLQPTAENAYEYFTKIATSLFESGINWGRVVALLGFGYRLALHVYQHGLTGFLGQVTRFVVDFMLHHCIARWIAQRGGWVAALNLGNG
Description: Liposome permeabilization assay: BH3 peptide activation of D83A(s) BAK receptor. The assay is classed as biochemical. As to conditions: for liposome permeabilization by 50 nM D83A(s) BAK receptor: 50 nM mutant BAK, Suppl. Fig. 4f; for pEC50: EC50 of liposome permeabilization by 200 nM D83A(s) BAK, 200 nM D83A(s) BAK, Suppl. Fig. 3e, 4e. As to the method: (§1) We performed liposome permeabilization assays as previously described[43]-[46]. […] We mixed the lipid film in ANTS/DPX solution by vortexing and sonication (~15 min) followed by extrusion through polycarbonate membrane of 2 μm pore size (Avanti Polar lipids) to generate homogenous large unilamellar vesicles (LUVs). We separated LUVs from free ANTS/DPX by S500 size exclusion chromatography and stored them at 4 °C in the dark. We prepared peptide and protein dilutions in 96-well black flat bottom plates (Costar) kept on ice. […] We quantified liposome permabilization by integrating area under curve (AUC) of normalized traces based on the Simpson's equation, and analyzed that data in Excel and GraphPad Prism. AUC measurements reflect the kinetic and extent of liposome permeabilization and provide quantitative means for comparison between different experimental conditions (e.g., BAK mutants with gross or partial variation in activity). Variability in permeabilization of different liposomes is common and our analyses compare among conditions investigated with the same liposomes. Although the absolute permeabilization values may differ, the trends for the same conditions are always very similar between different liposomes.

Assay [2] concerns the target T2, I81R(3) BAK (Homo sapiens, UniProt Q16611, I81R).
T2 construct: C-terminus truncated recombinant human BAK containing C-terminal 6× histidine tag (MEAS-BAK); made in house; host or cells: E. coli T7 Express pLac I/Y
T2 sequence (Q16611 1-186 I81R limits assumed): T1 sequence (Q16611 1-186 D83A limits assumed) with I81R, A83D
Description: Liposome permeabilization assay: BH3 peptide activation of I81R(3) BAK receptor. The assay is classed as biochemical. To be noted: 50 nM mutant BAK; Suppl. Fig. 4f. The method, then:
We next compared activation of mutant BAK receptors by WT BID BH3 and WT BAK BH3 peptide ligands. At concentrations above 1 µM, both peptide ligands would activate WT or V74A(1) BAK (Supplementary Figs. 3e, 4d, e, and Supplementary Table 1).
We performed liposome permeabilization assays as previously described[43]–[46]. […] (nickel salt) [DGS NTA(Ni), 2.5 μM final concentration in each assay] (Avanti Polar Lipids). We prepared 12.5 mM fluorophore; 8-aminonaphthalene-1, 3, 6-trisulfonic acid, disodium salt (ANTS) and 45 mM quencher; p-xylene-bis-pyridiniumbromide (DPX) in LUV buffer (10 mM HEPES pH 6.8, 200 mM KCl and 5 mM MgCl2). We mixed the lipid film in ANTS/DPX solution by vortexing and sonication (~15 min) followed by extrusion through polycarbonate membrane of 2 μm pore size (Avanti Polar lipids) to generate homogenous large unilamellar vesicles (LUVs). We separated LUVs from free ANTS/DPX by S500 size exclusion chromatography and stored them at 4 °C in the dark. We prepared peptide and protein dilutions in 96-well black flat bottom plates (Costar) kept on ice. ANTS release from permeabilized liposomes causes an increase in fluorescence, which we monitored at 37 °C for 90 min using a CLARIOSTAR microplate reader (BMG Labtech) set at excitation and emission wavelengths of 360 and 530 nm, respectively. We normalized the data relative to maximum and minimum fluorescence induced by 3% CHAPS and buffer controls, respectively. We quantified liposome permabilization by integrating area under curve (AUC) of normalized traces based on the Simpson’s equation, and analyzed that data in Excel and GraphPad Prism. AUC measurements reflect the kinetic and extent of liposome permeabilization and provide quantitative means for comparison between different experimental conditions (e.g., BAK mutants with gross or partial variation in activity). Variability in permeabilization of different liposomes is common and our analyses compare among conditions investigated with the same liposomes. […]

Assay [3] has as its system I81A(3) BAK. Nature of the assay: Liposome permeabilization assay: BH3 peptide activation of I81A(3) BAK receptor. To be noted: 50 nM mutant BAK; Suppl. Fig. 4f. The assay is classed as biochemical, human. The method, then:
as §1

Changes are numbered by the printed parent chain. pEC50: −log10 of the molar value. Where “and” joins values, the source holds several entries; their conditions need not be identical. Equal values may be shown once.

For `CC[C@H](C)[C@H](NC(=O)[C@H](C)NC(=O)[C@H](CC(C)C)NC(=O)[C@H](CCC(N)=O)NC(=O)[C@H](CCCNC(=N)N)NC(=O)CNC(=O)[C@@H](NC(=O)[C@H](CCC(N)=O)NC(=O)CNC(=O)[C@H](CCSC)NC(=O)[C@@H](NC(=O)[C@H](CO)NC(=O)[C@H](CO)NC(C)=O)[C@@H](C)O)C(C)C)C(=O)N[C@H](C(=O)NCC(=O)N[C@@H](CC(=O)O)C(=O)N[C@@H](CC(=O)O)C(=O)N[C@H](C(=O)N[C@@H](CC(N)=O)C(=O)N[C@@H](CCCNC(=N)N)C(=O)N[C@@H](CCCNC(=N)N)C(=O)N[C@@H](Cc1ccc(O)cc1)C(N)=O)[C@@H](C)CC)[C@@H](C)CC` [WT BAK BH3], in assay [1], the “liposome permeabilization by 50 nM D83A(s) BAK receptor” value was “neither peptide ligands could promote liposome permeabilization”; the pEC50 (in general, the negative decadic logarithm of the EC50, by convention in mol/L) is 5.15 to 5.40 and 5.15 to 5.30. The “liposome permeabilization by 50 nM I81R(3) BAK receptor” value in assay [2] is “neither peptide ligands could promote liposome permeabilization”. In addition, the “liposome permeabilization by 50 nM I81A(3) BAK receptor” value in assay [3] was “neither peptide ligands could promote liposome permeabilization”.

Turning to `CC[C@H](C)[C@H](NC(=O)[C@H](CO)NC(=O)[C@H](CCCNC(=N)N)NC(=O)[C@H](CC(=O)O)NC(=O)[C@H](CCSC)NC(=O)[C@H](CO)NC(=O)[C@H](CC(=O)O)NC(=O)CNC(=O)[C@@H](NC(=O)[C@H](CCC(N)=O)NC(=O)[C@H](C)NC(=O)[C@H](CC(C)C)NC(=O)[C@H](Cc1c[nH]cn1)NC(=O)[C@H](CCCNC(=N)N)NC(=O)[C@H](C)NC(=O)[C@@H](NC(=O)[C@H](CC(N)=O)NC(=O)[C@H](CCCNC(=N)N)NC(=O)[C@@H](NC(=O)[C@@H](NC(=O)[C@H](CC(=O)O)NC(=O)[C@H](CCC(=O)O)NC(C)=O)[C@@H](C)CC)[C@@H](C)CC)[C@@H](C)CC)C(C)C)C(N)=O` [WT BID BH3, reference compound], in assay [1], the “liposome permeabilization by 50 nM D83A(s) BAK receptor” value is given as “neither peptide ligands could promote liposome permeabilization”; the pEC50 is 5.15 to 5.40 and 5.15 to 5.30. Also, in assay [2], the “liposome permeabilization by 50 nM I81R(3) BAK receptor” value is reported as “neither peptide ligands could promote liposome permeabilization”. In assay [3], the “liposome permeabilization by 50 nM I81A(3) BAK receptor” value is “neither peptide ligands could promote liposome permeabilization”.
